Results: ChEMBL document CHEMBL1201862, “PubChem BioAssay data set” (2004)
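Five compound concentrations were applied to cells in 96-well plates for 48 hours; endpoints were derived by simple linear interpolation of the resulting dose-response curve. Abbreviation: GI50, concentration required for 50% inhibition of growth.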 Calls of active or inactive are those of the source. No stated cut-off is given here; in the data, active = GI50 up to about 1.1 µM and inactive = higher.

Columns and labels:
Experiment in all cases: DTP human tumour cell line panel, 48 h
[1] = tested on: TK-10
[2] = tested on: MDA-MB-435
[3] = tested on: 786-0
[4] = tested on: UO-31
[5] = tested on: T47D
[6] = tested on: LOX IMVI
[7] = tested on: IGROV-1
[8] = tested on: OVCAR-4
[9] = tested on: PC-3
[10] = tested on: SW-620
[11] = tested on: A549
[12] = tested on: ACHN
[13] = tested on: OVCAR-5
[14] = tested on: MCF7
[15] = tested on: Hs-578T
[16] = tested on: SF-539
[17] = tested on: CCRF-CEM
[18] = tested on: SK-OV-3

Measured: GI50

O=C(O)C(O)(c1ccc(-c2ccccc2)cc1)c1ccc(-c2ccccc2)cc1
inactive: [1] 37.6 µM | [2] 19.5 µM | [3] 24.5 µM | [4] 42 µM | [5] 41.6 µM | [6] 17.9 µM | [7] 23.4 µM | [8] 36 µM | [9] 27 µM | [10] 32.4 µM | [11] 40.4 µM | [12] 32.1 µM | [13] 26.7 µM

CCOC(=O)NC(C(=O)OCC)C(F)(F)F (stereo not given)
inactive: [1] > 100 µM | [3] > 100 µM | [4] > 100 µM | [6] 76.6 µM | [14] > 100 µM | [15] > 100 µM | [7] > 100 µM | [16] 37.4 µM | [17] 40.6 µM | [9] > 100 µM | [10] > 100 µM | [11] > 100 µM | [18] > 100 µM | [12] > 100 µM | [13] > 100 µM

CC(C)[Si](OC1=C(C(=O)N(C)c2ccccc2Cl)CCCCC1)(C(C)C)C(C)C
inactive: [1] > 100 µM | [2] > 100 µM | [3] > 100 µM | [4] > 100 µM | [5] > 100 µM | [6] > 100 µM | [7] > 100 µM | [16] > 100 µM | [8] > 100 µM | [10] > 100 µM | [11] > 100 µM | [18] > 100 µM | [12] > 100 µM | [13] > 100 µM

C=CC[C@]1(/C=N/O)CN(S(=O)(=O)CC[Si](C)(C)C)C[C@H]2CC=CC[C@H]21
inactive: [1] 19.5 µM | [2] 29.4 µM | [3] 18.5 µM | [4] 26.3 µM | [5] 26.4 µM | [6] 19.7 µM | [14] 17.3 µM | [7] 15.4 µM | [16] 18.2 µM | [8] 14.8 µM | [17] 14 µM | [9] 17.6 µM | [10] 18.1 µM | [11] 16 µM | [18] 24.2 µM | [12] > 10 µM | [13] 21.7 µM

CCOC(=O)c1cc(I)c(-c2cc(C)no2)n1C
inactive: [1] > 100 µM | [2] 34.8 µM | [3] 43.5 µM | [4] 37.9 µM | [5] 32.2 µM | [6] 37.3 µM | [16] > 100 µM | [8] 21.8 µM | [17] 27.9 µM | [9] 38.5 µM | [10] 60.7 µM | [11] 61.7 µM | [18] > 100 µM | [12] 48.3 µM | [13] 93.3 µM

Cc1cc(Cl)ccc1NC(=O)CC/C(CC(=O)C(C)C)=N\NC(=O)C[n+]1ccccc1
inactive: [1] > 100 µM | [3] > 100 µM | [4] > 100 µM | [6] > 100 µM | [7] > 100 µM | [16] > 100 µM | [8] > 100 µM | [17] > 100 µM | [10] > 100 µM | [11] > 100 µM | [18] > 100 µM | [12] > 100 µM | [13] > 100 µM

N#Cc1c(N)nc2c3c1NC(=O)C(C(N)=O)C3c1ccccc1O2 (stereo not given)
inactive: [1] > 100 µM | [2] > 100 µM | [3] 37.9 µM | [4] > 100 µM | [5] 95.9 µM | [6] > 100 µM | [14] > 100 µM | [7] 17.3 µM | [16] 74 µM | [8] 95.5 µM | [17] 81.1 µM | [9] > 100 µM | [10] > 100 µM | [11] > 100 µM | [18] > 100 µM | [12] > 100 µM | [13] > 100 µM

COC(=O)C1(CCC(C)=O)CCCCCC1=O (stereo not given)
inactive: [1] > 100 µM | [2] > 100 µM | [3] > 100 µM | [4] > 100 µM | [5] > 100 µM | [6] > 100 µM | [14] > 100 µM | [7] > 100 µM | [16] > 100 µM | [8] > 100 µM | [9] > 100 µM | [10] > 100 µM | [11] > 100 µM | [18] > 100 µM | [12] > 100 µM | [13] > 100 µM

CO[P@]1(=O)O[C@@H](c2ccccc2)[C@H](O)[C@@]1(O)c1ccccc1
inactive: [1] > 100 µM | [2] > 100 µM | [3] > 100 µM | [4] > 100 µM | [5] > 100 µM | [6] > 100 µM | [14] > 100 µM | [7] > 100 µM | [16] > 100 µM | [8] > 100 µM | [17] > 100 µM | [9] > 100 µM | [10] > 100 µM | [11] > 100 µM | [18] > 100 µM | [12] > 100 µM | [13] > 100 µM

COc1ccc(-c2c(C(C)=O)c(-c3ccccc3)n(C3OC(CO)C(O)C(O)C3O)c(=S)c2C#N)cc1 (stereo not given)
inactive: [1] > 100 µM | [2] > 100 µM | [3] > 100 µM | [4] 4 µM | [5] > 100 µM | [6] > 100 µM | [14] > 100 µM | [7] > 100 µM | [16] > 100 µM | [8] > 100 µM | [17] > 100 µM | [10] > 100 µM | [11] > 100 µM | [18] > 100 µM | [12] > 100 µM | [13] > 100 µM

O=C(Nc1ccccn1)/C(=C\C(=O)c1ccc(Cl)cc1)Nc1ccccc1
inactive: [1] > 10 µM | [2] > 10 µM | [3] 7.16 µM | [5] > 10 µM | [6] > 10 µM | [14] > 10 µM | [7] > 10 µM | [8] > 10 µM | [17] > 10 µM | [9] > 10 µM | [10] > 10 µM | [11] > 10 µM | [18] > 10 µM

COC(=O)C1=CC(=O)OC1(OO)c1ccc(Br)cc1 (stereo not given)
inactive: [1] > 100 µM | [2] > 100 µM | [3] 65.2 µM | [4] > 100 µM | [5] > 100 µM | [6] 48.5 µM | [14] > 100 µM | [7] > 100 µM | [16] > 100 µM | [8] > 100 µM | [17] 27 µM | [9] > 100 µM | [10] 62.8 µM | [11] > 100 µM | [18] > 100 µM | [12] > 100 µM | [13] > 100 µM

COc1ccc2c3c([nH]c2c1[N+](=O)[O-])C(C)N(C(=O)/C=C/c1ccccc1)CC3 (stereo not given)
inactive: [1] 60.3 µM | [3] 12.7 µM | [4] 28 µM | [6] 2.92 µM | [7] > 100 µM | [16] 10.8 µM | [8] 21.9 µM | [17] 3.29 µM | [10] 3.56 µM | [11] 14.3 µM | [12] 9.77 µM | [13] > 100 µM
